In patent US5559115A, “Oncogene function-inhibitory agent, method for inhibiting oncogene function, and treatment of cancer” (Terumo Kabushiki Kaisha, priority 1993, dated 1996):
In brackets after ≈: the same amount, converted by molar mass. Entries after “also recorded” stand apart in the source; their conditions may differ.

Tests used:
K-ras-NIH 3T3 cells = experiment: Propagation inhibitory effect on K-ras-NIH 3T3 cells; format: cell-based; conditions: Mus musculus, NIH3T3, 72 h; K-ras-NIH 3T3, 3 days; read-out: IC50, cell propagation
Description: (§1) Normal rat kidney cell, NRK-49 (Dainihon Pharmaceutical K.K.) and normal mouse cell, NIH 3T3 (JCRB Cell Bank); and K-ras NIH 3T3, H-ras NIH 3T3, and N-ras NIH 3T3 (Tokyo University, Medical Science Institute, Japan) which are cell lines that have been transformed with Kirsten sarcoma virus, Harvey sarcoma virus, and neuroblastoma virus, respectively, were incubated at 37° C. in the similar manner.
(§2) Next, cells of different types were inoculated in wells of 12 wells plastic plate (Costar 3521, manufactured by Costar) at 2.0×10^4 /DMEM 1 ml/well, and the plate was incubated in an incubator of 5% CO2 for one day. III-121C was added to the thus incubated cells to different concentrations and incubation was continued for another 3 days. The number of cells was measured by repeating the above-described procedure to determine the concentration (IC50) of the III-121C required to inhibit the cell propagation to 50%.

K-ras-NRK tumor = experiment: Growth of K-ras-NRK tumor in nude mice; format: in vivo; conditions: K-ras-NRK s.c., intraperitoneal, days 0, 2, 4 (FIG. 8)
Description: To 4 groups of nude mice (each group comprising 6 individuals) were subcutaneously inoculated 1×10^6 cells of K-ras-NRK on their back. Formation of a small tumor was recognized after 4 days from the inoculation, and intraperitoneal administration of III-121C at different doses was started on this day (day 0). III-121C was additionally administered after two days and four days from the start of the administration to measure the volume of the tumor. No III-121C was administered to the mice of the control group. The results are depicted in FIG. 8.

H-ras-NIH 3T3 cells [1] = experiment: Propagation inhibitory effect on H-ras-NIH 3T3 cells; format: cell-based; conditions: Mus musculus, NIH3T3, 72 h; H-ras-NIH 3T3, 3 days; read-out: IC50, cell propagation
Description: as §1, §2

K-ras-NRK cells [2] = experiment: Effect on production of actin filaments, K-ras-NRK cells; format: cell-based, rat; conditions: 1 μg/ml, one day
Description: (§3) A cover glass with a diameter of 18 mm (manufactured by Matsunami Glass Industry K.K.) that had been washed with 100% ethanol, dried, and sterilized was placed in wells of 12 wells plastic plate, and the cells were inoculated in the wells at 3.0×10^4 /DMEM 1 ml/well. The plate was incubated in an incubator of 5% CO2 for 1 day. To the thus incubated cell culture was added 1 μg/ml of III-121C, and the incubation was continued for another one day. The cell culture was then fixed with paraformaldehyde. The fixed cell culture was reacted with rhodamine pharoidine reagent (Molecular Probe Inc.) to examine the cell morphology by fluorescence microscope with G filter (excitation, 546 nm).

K-ras^ts-NRK cells [3] = experiment: Action mechanism: morphology / M phase observation in K-ras^ts-NRK cells; format: cell-based, rat
Description: Before the addition of the III-121C, the cells grew atop the other and had projections or processes on their surface (FIG. 9(a)).
The procedure as described above was repeated by replacing the III-121C with 0.1 μg/ml of vinblastine, 0.1 μg/ml of vincristine and 0.1 μg/ml of colchicine, which are known as microtubule formation inhibitors.

K-ras-NRK cells [4] = experiment: Activity to induce changes in cell morphology, K-ras-NRK cells; format: cell-based, rat; conditions: 0.3 μg/ml, 2 days
Description: (§4) The effect of the III-121C on various types of cultured cells was evaluated by inoculating each type of cells in wells of 24 wells plastic plate (Costar 3524, manufactured by Costar) at 3×10^4 cells/1 ml medium/well; incubating the plate in an incubator of 5% CO2 for one day; and adding the III-121C sample to the cell cultures to observe the cell morphology for another two days.
K-ras-NRK is a transformed cell line, and the cells appear round with its central portion raised.

H-ras-NIH 3T3 cells [5] = experiment: Activity to induce changes in cell morphology, H-ras-NIH 3T3 cells; format: cell-based, mouse; conditions: 0.3 μg/ml, 2 days
Description: as §1, §4
(§5) K-ras-NIH 3T3 and H-ras-NIH 3T3 are transformed cell lines, and the cells are elongated with projections or processes on their surface, and grow atop the other. N-ras-NIH 3T3 cells are also elongated and their projections or processes are even longer.

NRK cells = experiment: Propagation inhibitory effect on NRK cells; format: cell-based; conditions: Rattus norvegicus, 72 h, 3 days, read-out: IC50, cell propagation
Description: as §1, §2

N-ras-NIH 3T3 cells [6] = experiment: Propagation inhibitory effect on N-ras-NIH 3T3 cells; format: cell-based; conditions: Mus musculus, NIH3T3, 72 h; N-ras-NIH 3T3, 3 days; read-out: IC50, cell propagation
Description: as §1, §2

[7] = Acute toxicity (LD50) on mouse upon intravenous injection; format: in vivo; conditions: in vivo, intravenous injection
Description: (§6) Toxicity (LD50) on mouse of III-121C upon intravenous injection was measured.

mouse = experiment: as above; format: in vivo; conditions: compared to conventional alkaloid carcinostatics of plant origin
Description: as §6

K-ras NRK cells = experiment: Propagation inhibitory effect on K-ras NRK cells; format: cell-based; conditions: Rattus norvegicus, 72 h, 3 days, read-out: IC50, cell propagation
Description: as §2

H-ras-NIH 3T3 cells [8] = experiment: Effect on production of actin filaments, H-ras-NIH 3T3 cells; format: cell-based, mouse; conditions: 1 μg/ml, one day
Description: as §3

K-ras^ts-NRK cells [9] = experiment: Activity to induce changes in cell morphology, K-ras^ts-NRK cells; format: cell-based, rat; conditions: 2 days
Description: as §1, §4

cell morphology = experiment: Cell morphology normalizing activity (extract, fractions, purified product); format: cell-based
Description: The inventors of the present invention then succeeded in the isolation and characterization of the active component in the extract. The present invention has been completed on the bases of such study.
To a small amount of chloroform was dissolved 1.34 g of the extract, and the resulting solution was charged in a column having packed therein 10 g of silica gel (Merck silicagel 60, manufactured by Merck). To the column was first added 100% chloroform to elute the impurities, and then, 100:1 chloroform:methanol was added and the eluate was fractionated into portions of about 10 ml. Each fraction was examined by thin layer chromatography (silica gel; 20:1 chloroform:methanol solvent; UV 330 nm), and fractions having an Rf of 0.56 with blue color were collected.
The thus obtained active substance was dissolved in a small amount of methanol. After removing the precipitates, the solution was charged in a column of Toyopearl HW-40 that had been equilibrated with methanol to thereby carry out the gel filtration chromatography. The column was eluted with 100% methanol and 3 ml fractions were collected. The thus collected fractions were analyzed by thin layer chromatography using 20:1 chloroform:methanol for the developer. […] This substance is hereinafter referred to as III-121C.

N-ras-NIH 3T3 cells [10] = experiment: Activity to induce changes in cell morphology, N-ras-NIH 3T3 cells; format: cell-based, mouse; conditions: 0.3 μg/ml, 2 days
Description: as §1, §4, §5

CCC12CC(C(=O)OC)=C3Nc4cc5c(cc4C34CCN(CC3OC31)C42)C1C(O5)C(O)C2(CC)CC(C(=O)OC)=C3Nc4c(cc(O)c(OC)c4OC)C34CCN1C42 (centres unmarked) [III-121C]
IC50 (K-ras-NIH 3T3 cells): 0.4 µg/mL (≈ 0.503 µM) | tumor growth inhibition (K-ras-NRK tumor): the growth of the tumor was inhibited in a dose dependent manner; also recorded: growth suppression of tumors in living mammals | IC50 (H-ras-NIH 3T3 cells [1]): 0.48 µg/mL (≈ 0.604 µM) | actin filaments / cell morphology (K-ras-NRK cells [2]): morphology of normal cells with longitudinally extending linear actin filaments | anti-ras activity (K-ras^ts-NRK cells [3]; 1 μg/ml, 33° C.): has an anti-ras activity | change in cell morphology (K-ras^ts-NRK cells [3]; 33° C., 1 μg/ml, after one day): the cells no longer grew atop the other and became flat | change in cell morphology and growth habits (K-ras^ts-NRK cells [3]; 33° C., 1 μg/ml, after two days): such change in the cell morphology and growth habits were even more significant | cell division inhibitory activity (K-ras^ts-NRK cells [3]; compared with microtubule inhibitors): free from the cell division inhibitory activity; also recorded: not associated with the cell division inhibitory action | change in cell morphology and growth habits (K-ras-NRK cells [4]): the cells changed their morphology and growth habits to those of normal cells, and became flat with an increased area of contact | change in cell morphology and growth habits (H-ras-NIH 3T3 cells [5]): the cells changed their morphology and growth habits to those of normal NIH 3T3 cells, and became flat with an increased area of contact | IC50 (NRK cells): 0.19 µg/mL (≈ 0.239 µM) | IC50 (N-ras-NIH 3T3 cells [6]): 0.12 µg/mL (≈ 0.151 µM) | LD50 [7]: 24.3 mg/kg | acute toxicity in words (mouse): weaker toxicity; also recorded: low acute toxicity | IC50 (K-ras NRK cells): 0.4 µg/mL (≈ 0.503 µM) | actin filaments / cell morphology (H-ras-NIH 3T3 cells [8]): morphology of normal cells with longitudinally extending linear actin filaments | change in cell morphology and growth habits (K-ras^ts-NRK cells [9]; 33° C., 0.3 μg/ml): the cells changed their morphology and growth habits to those of normal cells | change in cell morphology and growth habits (K-ras^ts-NRK cells [9]; 39° C.): the cell morphology and growth habits were the same as the K-ras^ts -NRK cells that had been incubated in the absence of III-121C | activity of normalizing the cell morphology (cell morphology): confirmed to have an activity of normalizing the cell morphology | change in cell morphology and growth habits (N-ras-NIH 3T3 cells [10]): the cells changed their morphology and growth habits to those of normal NIH 3T3 cells, and became flat with an increased area of contact
